Experiments:
Format in all cases: in vivo
Barnyard grass [1] = assay: Herbicidal activity test for indoor pre-emergence soil treatment; set-up: key: level 1-9; higher = more weed remaining vs blank control; conditions: 150 g a.i./ha, visual inspection 21 days after treatment
Method in brief: (§1)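 Pre-emergence test following NY/T 1155.3-2006: weed seeds were sown in moistened neutral sandy loam (≤2% organic matter) and covered with 0.5–2.0 cm of soil. After 24 h, the soil was sprayed with a 10% EC diluted in water at 150 g(a.i.)/ha. Damage was scored visually on a 1–9 scale at 21 days.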

Piemarker [2] = assay: as above; set-up: key: level 1-9; higher = more weed remaining vs blank control; conditions: 150 g a.i./ha, visual inspection 21 days after treatment
Method in brief: as §1

green bristlegrass [3] = assay: as above; set-up: key: level 1-9; higher = more weed remaining vs blank control; conditions: 150 g a.i./ha, visual inspection 21 days after treatment
Method in brief: as §1

Amaranthus retroflexus [4] = assay: as above; set-up: key: 1-9 levels; higher = more weed remaining vs blank control; conditions: 150 g a.i./ha, visual inspection 21 days after treatment
Method in brief: as §1

Digitaria sanguinalis [5] = assay: as above; set-up: key: 1-9 levels; higher = more weed remaining vs blank control; conditions: 150 g a.i./ha, visual inspection 21 days after treatment
Method in brief: as §1

Humulus scandens [6] = assay: as above; conditions: 150 g a.i./ha, visual inspection 21 days after treatment
Method in brief: as §1

Amaranthus retroflexus [7] = assay: Herbicidal activity test for indoor post-emergence spraying on stems and leaves; set-up: key: grade level by weed remaining vs blank control, e.g. 5 = 10.1-15%; conditions: 150 g a.i./ha, visual inspection 21 days after treatment
Method in brief: (§2)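 Post-emergence stem and leaf spray in an indoor test following NY/T 1155.4-2006, with weeds sown and grown in a greenhouse. Effect scored visually 21 days after treatment as graded levels, each level set by the percentage of weed remaining relative to the blank control area.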

Barnyard grass [8] = assay: as above; set-up: key: grade level by weed remaining vs blank control, e.g. 5 = 10.1-15%; conditions: 150 g a.i./ha, visual inspection 21 days after treatment
Method in brief: as §2

Digitaria sanguinalis [9] = assay: as above; set-up: key: grade level by weed remaining vs blank control, e.g. 5 = 10.1-15%; conditions: 150 g a.i./ha, visual inspection 21 days after treatment
Method in brief: as §2

Humulus scandens [10] = assay: as above; set-up: key: grade level by weed remaining vs blank control, e.g. 5 = 10.1-15%; conditions: 150 g a.i./ha, visual inspection 21 days after treatment
Method in brief: as §2

Piemarker [11] = assay: as above; set-up: key: grade level by weed remaining vs blank control, e.g. 5 = 10.1-15%; conditions: 150 g a.i./ha, visual inspection 21 days after treatment
Method in brief: as §2

green bristlegrass [12] = assay: as above; set-up: key: grade level by weed remaining vs blank control, e.g. 5 = 10.1-15%; conditions: 150 g a.i./ha, visual inspection 21 days after treatment
Method in brief: as §2

Broadleaf weed = assay: Post-emergence herbicidal activity test in a paddy field; set-up: key: level scale; higher level = more weed left vs blank control; conditions: 150 g a.i./ha (penoxsulam control 250 g(a.i.)/h)
Method in brief: (§3)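 Efficacy was visually estimated 15 and 30 days after spraying, grading weed coverage relative to an untreated neighbouring plot (level 2 = 0 to 2.5%, level 9 = 67.6 to 100%). Treatments were 150 g(a.i.)/ha from 10% emulsifiable concentrates applied at the 4-5 leaf rice stage, four repeats of 50 m^2 each.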

Cyperaceae = assay: as above; set-up: key: level scale; higher level = more weed left vs blank control; conditions: 150 g a.i./ha (penoxsulam control 250 g(a.i.)/h)
Method in brief: as §3

Gramineae = assay: as above; set-up: key: level scale; higher level = more weed left vs blank control; conditions: 150 g a.i./ha (penoxsulam control 250 g(a.i.)/h)
Method in brief: as §3

Acalypha australis = assay: Field test for weed control in a corn field; conditions: 150 g a.i./ha, after treatment
Method in brief: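 Post-emergence field trial in a corn field following GB/T 17980.42-2000. Test compounds were formulated as 10% emulsifiable concentrates, diluted in water, and sprayed at 150 g(a.i.)/ha when corn had 2 to 5 leaves, with 4 replicates on 20 m^2 plots. Mesotrione 25% oil dispersion served as the control agent. Weed control was scored on a 1-9 scale.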

Amaranthus retroflexus [13] = assay: Field test for weed control in a corn field; conditions: 150 g a.i./ha, 30 days after treatment
Method in brief: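 Field efficacy trial in a corn field following GB/T 17980.42-2000. Test compounds were formulated as 10% emulsifiable concentrates, diluted in water and sprayed post-emergence when corn had 2 to 5 leaves. Each treatment covered 20 m^2 with 4 replicates. A 25% mesotrione oil dispersion served as control. Damage to Amaranthus retroflexus was rated on a 1-9 scale against untreated blank plots.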

Barnyard grass [14] = assay: Field test for weed control in a corn field; conditions: 150 g a.i./ha, 30 days after treatment
Method in brief: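 Corn-field efficacy trial following GB/T 17980.42-2000. Test compounds were formulated as 10% emulsifiable concentrates, diluted in water and sprayed post-emergence at 150 g(a.i.)/ha when corn had 2 to 5 leaves. Each treatment was replicated 4 times on 20 m^2 plots. Barnyard grass control was rated on a 1-9 damage scale.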

Chenopodium album = assay: Field test for weed control in a corn field; conditions: 150 g a.i./ha, after treatment
Method in brief: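 A corn-field efficacy trial following GB/T 17980.42-2000 tested post-emergence control of Chenopodium album. Test compounds formulated as 10% emulsifiable concentrates were diluted in water and sprayed at 150 g(a.i.)/ha when the corn had 2 leaves to 5 leaves, on 20 m^2 plots with 4 replicates. Herbicidal activity was rated on a 1-9 scale by damage symptoms and severity.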

Convolvulus arvensis = assay: Field test for weed control in a corn field; conditions: 150 g a.i./ha, after treatment
Method in brief: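 Field trial of weed control against Convolvulus arvensis in corn, run following GB/T 17980.42-2000. Test agents were formulated as 10% emulsifiable concentrates and sprayed in water at 150 g(a.i.)/ha when corn plants had 2 to 5 leaves. Each treatment was replicated 4 times on 20 m^2 plots, and 25% mesotrione oil dispersion served as the control agent.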

Digitaria sanguinalis [15] = assay: Field test for weed control in a corn field; conditions: 150 g a.i./ha, after treatment
Method in brief: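 Field trial in a corn field following GB/T 17980.42-2000. Test compounds were formulated as 10% emulsifiable concentrates, diluted in water and sprayed post-emergence at 150 g(a.i.)/ha when corn had 2 to 5 leaves, with 4 replicates on 20 m^2 plots. Control of Digitaria sanguinalis was scored on a 1-9 scale based on weed damage relative to the untreated blank area.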

Portulaca oleracea = assay: Field test for weed control in a corn field; conditions: 150 g a.i./ha, after treatment
Method in brief: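 Field efficacy trial in corn following GB/T 17980.42-2000. Test compounds were prepared as 10% emulsifiable concentrates, diluted in water, and sprayed at 150 g(a.i.)/ha when corn had 2 to 5 leaves after sowing. Plots were 20 m^2 with 4 replicates per treatment. Herbicidal activity was scored on a 1-9 scale from weed damage symptoms and severity.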

Solanum nigrum = assay: Field test for weed control in a corn field; conditions: 150 g a.i./ha, 30 days after treatment
Method in brief: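 Post-emergence weed control was tested in a corn field following GB/T 17980.42-2000. Compounds were made into 10% emulsifiable concentrates, diluted in water and sprayed at 150 g(a.i.)/ha when corn had 2 to 5 leaves after sowing, in 20 m^2 plots with 4 replicates. Effects on Solanum nigrum were graded on a 1-9 scale relative to the blank control area.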

goosegrass = assay: Field test for weed control in a corn field; conditions: 150 g a.i./ha, after treatment
Method in brief: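 Weed control efficacy against goosegrass was tested in a corn field following GB/T 17980.42-2000. Compounds formulated as 10% emulsifiable concentrates were diluted in water and sprayed post-emergence at 150 g(a.i.)/ha when corn had 2 to 5 leaves, with 4 replicates of 20 m^2 plots. Herbicidal activity was rated on a 1-9 scale by damage symptoms and severity.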

green bristlegrass [16] = assay: Field test for weed control in a corn field; conditions: 150 g a.i./ha, after treatment
Method in brief: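 Post-emergence weed control was tested in a corn field following GB/T 17980.42-2000. When the corn had 2 leaves to 5 leaves after sowing, 10% emulsifiable concentrates diluted in water were sprayed at 150 g(a.i.)/ha on 20 m^2 plots, four replicates per treatment. Effects on green bristlegrass were scored on a 1-9 damage scale relative to the blank control area.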

nutgrass flatsedge = assay: Field test for weed control in a corn field; conditions: 150 g a.i./ha, after treatment
Method in brief: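 A corn field efficacy trial following GB/T 17980.42-2000 assessed post-emergence control of nutgrass flatsedge. Test compounds were formulated as 10% emulsifiable concentrates, diluted in water, and sprayed at 150 g(a.i.)/ha when the corn had 2 to 5 leaves. Each treatment had 4 replicates on 20 m^2 plots. Herbicidal activity was graded on a 1-9 scale by damage symptoms and severity.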

| Compound | Herbicidal Activity Barnyard grass (Barnyard grass [1]) | Herbicidal Activity Piemarker (Piemarker [2]) | Herbicidal Activity Green bristlegrass (green bristlegrass [3]) | Herbicidal Activity Amaranthus retroflexus (Amaranthus retroflexus [4]) | Herbicidal Activity Digitaria sanguinalis (Digitaria sanguinalis [5]) | Herbicidal Activity Humulus scandens (Humulus scandens [6]) | Herbicidal Activity Amaranthus retroflexus (Amaranthus retroflexus [7]) | Herbicidal Activity Barnyard grass (Barnyard grass [8]) | Herbicidal Activity Digitaria sanguinalis (Digitaria sanguinalis [9]) | Herbicidal Activity Humulus scandens (Humulus scandens [10]) | Herbicidal Activity Piemarker (Piemarker [11]) | Herbicidal Activity Green bristlegrass (green bristlegrass [12]) | Herbicidal activity 15 days after treatment Broadleaf weed (Broadleaf weed) | Herbicidal activity 30 days after treatment Broadleaf weed (Broadleaf weed) | Herbicidal activity 15 days after treatment Cyperaceae (Cyperaceae) | Herbicidal activity 30 days after treatment Cyperaceae (Cyperaceae) | Herbicidal activity 15 days after treatment Gramineae (Gramineae) | Herbicidal activity 30 days after treatment Gramineae (Gramineae) | Post-emergence weed control effect, Acalypha australis (Acalypha australis) | Post-emergence weed control effect, Amaranthus retroflexus (Amaranthus retroflexus [13]) | other results |
| --- | --- | --- | --- | --- | --- | --- | --- | --- | --- | --- | --- | --- | --- | --- | --- | --- | --- | --- | --- | --- | --- |
| COc1ccccc1C(=O)NCc1cccc(C)c1 [Compound A14, 2-methoxy-N-(3-methylbenzyl)benzamide] | 2 (equivalent to 0 to 2.5% of the weed in the blank control area) | 1 | 1 | 2 (equivalent to 0 to 2.5% of the weed in the blank control area) | 2 (equivalent to 0 to 2.5% of the weed in the blank control area) | 3 (equivalent to 2.6 to 5% of the weed in the blank control area) | 1 | 2 (equivalent to 0 to 2.5% of the weed in the blank control area) | 1 | 1 | 1 | 1 | 1 | 2 (equivalent to 0 to 2.5% of the weed in the blank control area) | 1 | 2 (equivalent to 0 to 2.5% of the weed in the blank control area) | 1 | 2 (equivalent to 0 to 2.5% of the weed in the blank control area) | 2 (equivalent to 0 to 2.5% of the weed in the blank control area) | 1 | Post-emergence weed control effect, Barnyard grass (Barnyard grass [14]): 1; Post-emergence weed control effect, Chenopodium album (Chenopodium album): 1; Post-emergence weed control effect, Convolvulus arvensis (Convolvulus arvensis): 1; Post-emergence weed control effect, Digitaria sanguinalis (Digitaria sanguinalis [15]): 2 (equivalent to 0 to 2.5% of the weed in the blank control area); Post-emergence weed control effect, Portulaca oleracea (Portulaca oleracea): 1; Post-emergence weed control effect, Solanum nigrum (Solanum nigrum): 2 (equivalent to 0 to 2.5% of the weed in the blank control area); Post-emergence weed control effect, Goose grass (goosegrass): 1; Post-emergence weed control effect, Green bristlegrass (green bristlegrass [16]): 1; Post-emergence weed control effect, Nutgrass flatsedge (nutgrass flatsedge): 2 (equivalent to 0 to 2.5% of the weed in the blank control area) |
| COc1ccc(OC)c(C(=O)NCc2cccc(F)c2)c1 [Compound A22, N-(3-fluorobenzyl)-2,5-dimethoxybenzamide] | 1 | 2 (equivalent to 0 to 2.5% of the weed in the blank control area) | 2 (equivalent to 0 to 2.5% of the weed in the blank control area) | 2 (equivalent to 0 to 2.5% of the weed in the blank control area) | 1 | 4 (equivalent to 5.1 to 10% of the weed in the blank control area) | 1 | 1 | 1 | 1 | 1 | 2 (equivalent to 0 to 2.5% of the weed in the blank control area) | 2 (equivalent to 0 to 2.5% of the weed in the blank control area) | 1 | 2 (equivalent to 0 to 2.5% of the weed in the blank control area) | 1 | 1 | 1 | 2 (equivalent to 0 to 2.5% of the weed in the blank control area) | 1 | Post-emergence weed control effect, Barnyard grass (Barnyard grass [14]): 2 (equivalent to 0 to 2.5% of the weed in the blank control area); Post-emergence weed control effect, Chenopodium album (Chenopodium album): 1; Post-emergence weed control effect, Convolvulus arvensis (Convolvulus arvensis): 1; Post-emergence weed control effect, Digitaria sanguinalis (Digitaria sanguinalis [15]): 1; Post-emergence weed control effect, Portulaca oleracea (Portulaca oleracea): 1; Post-emergence weed control effect, Solanum nigrum (Solanum nigrum): 2 (equivalent to 0 to 2.5% of the weed in the blank control area); Post-emergence weed control effect, Goose grass (goosegrass): 2 (equivalent to 0 to 2.5% of the weed in the blank control area); Post-emergence weed control effect, Green bristlegrass (green bristlegrass [16]): 2 (equivalent to 0 to 2.5% of the weed in the blank control area); Post-emergence weed control effect, Nutgrass flatsedge (nutgrass flatsedge): 2 (equivalent to 0 to 2.5% of the weed in the blank control area) |
